PubChem BioAssay (NCI)
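96-well plates; 48 h exposure; 5 concentrations. Endpoints by linear interpolation between flanking doses. Not reached: highest tested concentration assigned. GI50 = concentration required for 50% inhibition of growth. The concentration for full growth arrest is given as TGI.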

Assays:
Experiment in all cases: inhibition of tumour cell growth, NCI panel, 48 h
NCI-H23 lung = tested on: NCI-H23 lung
A498 renal = tested on: A498 renal
OVCAR-3 ovarian = tested on: OVCAR-3 ovarian
UACC-62 melanoma = tested on: UACC-62 melanoma
M14 melanoma = tested on: M14 melanoma
IGROV1 ovarian = tested on: IGROV1 ovarian
NCI-H460 lung = tested on: NCI-H460 lung
HT29 colon = tested on: HT29 colon
SK-MEL-2 melanoma = tested on: SK-MEL-2 melanoma
UACC-257 melanoma = tested on: UACC-257 melanoma

Row | Structure (SMILES) | GI50 (NCI-H23 lung) [µM] | TGI (NCI-H23 lung) [µM] | GI50 (A498 renal) [µM] | TGI (A498 renal) [µM] | GI50 (OVCAR-3 ovarian) [µM] | TGI (OVCAR-3 ovarian) [µM] | GI50 (UACC-62 melanoma) [µM] | TGI (UACC-62 melanoma) [µM] | GI50 (M14 melanoma) [µM] | TGI (M14 melanoma) [µM] | GI50 (IGROV1 ovarian) [µM] | TGI (IGROV1 ovarian) [µM] | GI50 (NCI-H460 lung) [µM] | TGI (NCI-H460 lung) [µM] | GI50 (HT29 colon) [µM] | TGI (HT29 colon) [µM] | GI50 (SK-MEL-2 melanoma) [µM] | TGI (SK-MEL-2 melanoma) [µM] | GI50 (UACC-257 melanoma) [µM] | TGI (UACC-257 melanoma) [µM]
1 | Oc1cc(Cl)ccc1Oc1ccc(Cl)cc1Cl | 2.07 | 5.5 | 2.8 | 14.1 | 5.21 | 17.2 | 2.16 | 5 | 2.86 | 7.24 | 4.73 | 17 | 2.85 | 8.3 | 3.27 | 10.2 | 2.41 | 5.01 | 2.28 | 6.48
2 | COC(=O)[C@@H]1CCCN1C(=O)[C@@H]1CCCN1C(=O)[C@@H](Cc1c[nH]c2ccccc12)NC(=S)Nc1cc(C(F)(F)F)cc(C(F)(F)F)c1 | 6.35 | > 100 | 11.1 | 98.2 | 3.8 | 52.2 | 3.68 | 20.4 | 4.68 | 21.1 | 3.91 | 48.7 | 4.77 | > 100 | 3.68 | 23.3 | 2.49 | 5.11 | 4.06 | 35.3
3 | CC(C)(Br)C(=O)/C=C/c1ccccc1 | – | 5 | – | 36.9 | – | 25.4 | – | 19 | – | 4.88 | – | 1.79 | – | 63.4 | – | 18.3 | – | 3.96 | – | 28.8
4 | O=C(Nc1ccc2c(c1)oc(=O)c1ccccc12)C(Cl)Cl | – | > 100 | – | > 100 | – | 73.8 | – | > 100 | – | > 100 | – | > 100 | – | 92.5 | – | 97.8 | – | > 100 | – | > 100
5 | Cc1c(C)c2ccc(OC/C=C3\CCC(=O)O3)cc2oc1=O | 15.4 | 29.6 | 17.9 | 37.1 | 15.8 | 30.3 | 14.5 | 28.3 | 11.4 | 24.7 | 14.2 | 28.9 | 16.4 | 35.6 | 16.6 | 35.3 | 14.2 | 30.7 | 15.9 | 31.3
6 | O=c1oc2ccc(Cl)cc2c(=O)n1-c1ccc(I)cc1F | 0.169 | 1.5 | 0.055 | 0.182 | 0.177 | 13.3 | 0.104 | 0.788 | 0.165 | 1.4 | 0.19 | > 42.3 | 0.199 | > 23.8 | 3.41 | 22.6 | 0.116 | 0.945 | 0.137 | 1.61
7 | C=C(C)CCC(C)N1CCC(N2CCC(C(=O)NCCc3ccccc3)CC2)CC1 (stereo not given) | 31.3 | > 100 | 4.55 | 44.4 | 53.7 | > 100 | 13.7 | 28.8 | 15.4 | 31.1 | > 100 | > 100 | 37.8 | > 100 | 22.1 | > 100 | 21.3 | 54.3 | 13.5 | 30.5
8 | CCN1C(=O)N(CC)C2C1NN=c1s/c(=C3\C(=O)N(C)c4ccccc43)c(=O)n12 (stereo not given) | 3.24 | > 88.1 | 0.23 | 0.908 | 0.382 | 8.18 | 0.431 | > 100 | 0.803 | > 58.3 | 0.891 | 43.7 | 1.29 | > 100 | 0.562 | > 100 | 3.06 | > 100 | 4.2 | > 100
9 | C[C@H](CS(C)(=O)=O)Nc1ncc2cc(Oc3ccc(F)cc3F)c(=O)n(C)c2n1 | > 25 | > 25 | > 25 | > 25 | > 25 | > 25 | > 25 | > 25 | > 25 | > 25 | > 25 | > 25 | > 25 | > 25 | > 25 | > 25 | > 25 | > 25 | > 25 | > 25
10 | O=C1CCC2(c3ccccc3)Nc3cc(Cl)ccc3N12 (stereo not given) | – | 60.7 | – | 98.7 | – | 62.8 | – | 56.4 | – | > 100 | – | > 100 | – | > 100 | – | > 100 | – | 53.5 | – | 71.5
11 | Fc1ccc(Nc2nc(NCCNc3ccnc4cc(Cl)ccc34)nc(N3CCOCC3)n2)cc1 | 14.6 | 30.2 | 1.48 | 8.47 | 11.9 | 24.5 | 2.65 | 7.35 | 1.94 | 3.66 | 6.3 | 21.4 | 3.44 | 14 | 2.27 | 5.77 | 2.2 | 4.51 | 1.9 | 3.65
12 | O=[N+]([O-])c1ccc(CS(=O)Cc2ccccc2)cc1 (stereo not given) | – | > 100 | – | > 100 | – | > 100 | – | > 100 | – | > 100 | – | > 100 | – | > 100 | – | > 100 | – | > 100 | – | > 100
13 | O=c1[nH]cnc2c(C3OC(CO)C(O)C3O)scc12 (stereo not given) | > 100 | > 100 | > 100 | > 100 | > 100 | > 100 | > 100 | > 100 | 56.5 | > 100 | 73.5 | > 100 | 74 | > 100 | > 100 | > 100 | 44.8 | > 100 | > 100 | > 100
14 | CC(=O)NC(CCCN(Cc1ccccc1)C(=O)N(CCCl)N=O)C(=O)NCc1ccccc1 (stereo not given) | – | > 75.1 | – | > 72 | – | > 100 | – | > 100 | – | > 100 | – | > 100 | – | > 79.6 | – | > 100 | – | > 94.8 | – | > 100
